Results as given in US9452194B2, “Methods for treating HCV” (AbbVie Inc., priority 2011, dated 2016).

Key:
1a-H77 replicons = test: Predominant resistant variants selected in replicons, fold resistance; assay type: cell-based, Hepatitis C virus
Experimental: (§1) Predominant resistant variants selected by Compound 1, 2, or 4 in genotype 1 replicons were also determined.

1b-Con1 replicons = test: as above; assay type: cell-based, Hepatitis C virus
Experimental: as §1

[1] = Bioavailability of solid formulation of Compound 2 with increased binder; assay type: in vivo; settings: 250 mg in the improved formulation versus 400 mg in the original formulation

## Cc1cnc(C(=O)N[C@H]2CCCCC/C=C\[C@@H]3C[C@@]3(C(=O)NS(=O)(=O)C3CC3)NC(=O)[C@@H]3C[C@@H](Oc4nc5ccccc5c5ccccc45)CN3C2=O)cn1 [Compound 1, (2R,6S,13aS,14aR,16aS,Z)-N-(cyclopropylsulfonyl)-6-(5-methylpyrazine-2-carboxamido)-5,16-dioxo-2-(phenanthridin-6-yloxy)-1,2,3,5,6,7,8,9,10,11,13a,14,14a,15,16,16a-hexadecahydrocyclopropa[e]pyrrolo[1,2-a][1,4]diazacyclopentadecine-14a-carboxamide]
1a-H77 replicons; variant D168A
  fold resistance: 48 fold
1a-H77 replicons; variant R155K
  fold resistance: 26 fold
1b-Con1 replicons; variant A156T
  fold resistance: 9 fold
1b-Con1 replicons; variant D168V
  fold resistance: 190 fold
1b-Con1 replicons; variant R155K
  fold resistance: 48 fold

## COc1c(-c2ccc3cc(NS(C)(=O)=O)ccc3c2)cc(-n2ccc(=O)[nH]c2=O)cc1C(C)(C)C [Compound 2, N-(6-(3-tert-butyl-5-(2,4-dioxo-3,4-dihydropyrimidin-1(2H)-yl)-2-methoxyphenyl)naphthalen-2-yl)methanesulfonamide]
1a-H77 replicons; variant C316Y
  fold resistance: 1600 fold
1a-H77 replicons; variant M414T
  fold resistance: 36 fold
1a-H77 replicons; variant S556G
  fold resistance: 15 fold
1a-H77 replicons; variant Y448C
  fold resistance: 980 fold
1b-Con1 replicons; variant C316Y
  fold resistance: 1400 fold
1b-Con1 replicons; variant D559G
  fold resistance: 100 fold
1b-Con1 replicons; variant M414T
  fold resistance: 26 fold
[1]
  bioequivalence of improved solid formulation (increased amount of binder, e.g. copovidone): bioequivalent

## COC(=O)N[C@H](C(=O)N1CCC[C@H]1C(=O)Nc1ccc([C@@H]2CC[C@@H](c3ccc(NC(=O)[C@@H]4CCCN4C(=O)[C@@H](NC(=O)OC)C(C)C)cc3)N2c2ccc(C(C)(C)C)cc2)cc1)C(C)C [Compound 4]
1a-H77 replicons; variant M28T
  fold resistance: 9000 fold
1a-H77 replicons; variant M28V
  fold resistance: 60 fold
1a-H77 replicons; variant Q30R
  fold resistance: 800 fold
1a-H77 replicons; variant Y93C
  fold resistance: 1700 fold
1a-H77 replicons; variant Y93H
  fold resistance: 41000 fold
1b-Con1 replicons; variant Y93H
  fold resistance: 55 fold
